Experimental data reported in PubChem BioAssay (NCI).
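Test compounds were applied to cells in 96-well plates for 48 hours at 5 doses. TGI: concentration producing complete growth inhibition.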

Experiments:
Experiment in all cases: NCI anticancer screen, dose series, 48 h
SNB-78 CNS = system: SNB-78 CNS
UO-31 renal = system: UO-31 renal
SK-OV-3 ovarian = system: SK-OV-3 ovarian
SR leukemia = system: SR leukemia
ACHN renal = system: ACHN renal
MDA-MB-231 breast = system: MDA-MB-231 breast
COLO 205 colon = system: COLO 205 colon
OVCAR-3 ovarian = system: OVCAR-3 ovarian
OVCAR-8 ovarian = system: OVCAR-8 ovarian
MDA-MB-435 = system: MDA-MB-435
KM12 colon = system: KM12 colon
DMS 273 small cell lung = system: DMS 273 small cell lung
RPMI-8226 leukemia = system: RPMI-8226 leukemia
MALME-3M melanoma = system: MALME-3M melanoma
SF-295 CNS = system: SF-295 CNS
LOX IMVI melanoma = system: LOX IMVI melanoma
CAKI-1 renal = system: CAKI-1 renal
IGROV1 ovarian = system: IGROV1 ovarian
SK-MEL-5 melanoma = system: SK-MEL-5 melanoma
DMS 114 small cell lung = system: DMS 114 small cell lung
SN12C renal = system: SN12C renal
A498 renal = system: A498 renal
NCI/ADR-RES ovarian = system: NCI/ADR-RES ovarian
MCF7 breast = system: MCF7 breast
MOLT-4 leukemia = system: MOLT-4 leukemia
DU-145 prostate = system: DU-145 prostate
SF-268 CNS = system: SF-268 CNS
TK-10 renal = system: TK-10 renal
SW-620 colon = system: SW-620 colon
HOP-92 NSCLC = system: HOP-92 NSCLC
K-562 leukemia = system: K-562 leukemia
OVCAR-5 ovarian = system: OVCAR-5 ovarian
BT-549 breast = system: BT-549 breast
HT29 colon = system: HT29 colon
SNB-19 CNS = system: SNB-19 CNS
PC-3 prostate = system: PC-3 prostate
SK-MEL-2 melanoma = system: SK-MEL-2 melanoma
NCI-H522 lung = system: NCI-H522 lung
T-47D breast = system: T-47D breast
NCI-H460 lung = system: NCI-H460 lung
MDA-N = system: MDA-N
HOP-18 NSCLC = system: HOP-18 NSCLC
786-0 renal = system: 786-0 renal
HOP-62 NSCLC = system: HOP-62 NSCLC
HCT-15 colon = system: HCT-15 colon
KM20L2 colon = system: KM20L2 colon
SNB-75 CNS = system: SNB-75 CNS
CCRF-CEM leukemia = system: CCRF-CEM leukemia
SF-539 CNS = system: SF-539 CNS
M14 melanoma = system: M14 melanoma
RXF 393 renal = system: RXF 393 renal
SK-MEL-28 melanoma = system: SK-MEL-28 melanoma
A549 NSCLC = system: A549 NSCLC
LXFL 529 NSCLC = system: LXFL 529 NSCLC
UACC-257 melanoma = system: UACC-257 melanoma
HCT-116 colon = system: HCT-116 colon
HCC-2998 colon = system: HCC-2998 colon
OVCAR-4 ovarian = system: OVCAR-4 ovarian
DLD-1 colon = system: DLD-1 colon
NCI-H23 lung = system: NCI-H23 lung
UACC-62 melanoma = system: UACC-62 melanoma
U251 CNS = system: U251 CNS
NCI-H226 lung = system: NCI-H226 lung
HS 578T breast = system: HS 578T breast
HL-60(TB) leukemia = system: HL-60(TB) leukemia
EKVX NSCLC = system: EKVX NSCLC
RXF-631 renal = system: RXF-631 renal
M19-MEL melanoma = system: M19-MEL melanoma

Cc1ccc2[nH]c3c(C)c4cc[n+](C)cc4c(C)c3c2c1
TGI (SNB-78 CNS): 4.82 µM | TGI (UO-31 renal): 60.2 µM | TGI (SK-OV-3 ovarian): 50.2 µM | TGI (SR leukemia): 70.7 µM | TGI (ACHN renal): 57.9 µM | TGI (MDA-MB-231 breast): > 44.7 µM | TGI (COLO 205 colon): 5.05 µM | TGI (OVCAR-3 ovarian): 19.2 µM | TGI (OVCAR-8 ovarian): 8.97 µM | TGI (MDA-MB-435): 13.7 µM | TGI (KM12 colon): 6.89 µM | TGI (DMS 273 small cell lung): 17.7 µM | TGI (RPMI-8226 leukemia): > 59.7 µM | TGI (MALME-3M melanoma): 4.38 µM | TGI (SF-295 CNS): 4.19 µM | TGI (LOX IMVI melanoma): 28.9 µM | TGI (CAKI-1 renal): > 56.5 µM | TGI (IGROV1 ovarian): 32.2 µM | TGI (SK-MEL-5 melanoma): 8.54 µM | TGI (DMS 114 small cell lung): 2.73 µM | TGI (SN12C renal): 1.52 µM | TGI (A498 renal): 4.53 µM | TGI (NCI/ADR-RES ovarian): > 100 µM | TGI (MCF7 breast): > 23.8 µM | TGI (MOLT-4 leukemia): 54.9 µM | TGI (DU-145 prostate): 33.5 µM | TGI (SF-268 CNS): 1.77 µM | TGI (TK-10 renal): > 96.3 µM | TGI (SW-620 colon): 12.2 µM | TGI (HOP-92 NSCLC): 33.7 µM | TGI (K-562 leukemia): 63.4 µM | TGI (OVCAR-5 ovarian): 77.1 µM | TGI (BT-549 breast): 3.05 µM | TGI (HT29 colon): 41.6 µM | TGI (SNB-19 CNS): 2.53 µM | TGI (PC-3 prostate): 7.63 µM | TGI (SK-MEL-2 melanoma): 4.71 µM | TGI (NCI-H522 lung): 3.9 µM | TGI (T-47D breast): 6.83 µM | TGI (NCI-H460 lung): 40.7 µM | TGI (MDA-N): 22.1 µM | TGI (HOP-18 NSCLC): > 58.5 µM | TGI (786-0 renal): 2.75 µM | TGI (HOP-62 NSCLC): 3.28 µM | TGI (HCT-15 colon): > 82.6 µM | TGI (KM20L2 colon): 71.3 µM | TGI (SNB-75 CNS): 0.761 µM | TGI (CCRF-CEM leukemia): 40.3 µM | TGI (SF-539 CNS): 2.73 µM | TGI (M14 melanoma): 28.9 µM | TGI (RXF 393 renal): 18.3 µM | TGI (SK-MEL-28 melanoma): 8.48 µM | TGI (A549 NSCLC): 4.28 µM | TGI (LXFL 529 NSCLC): 5.01 µM | TGI (UACC-257 melanoma): 20.2 µM | TGI (HCT-116 colon): 32.6 µM | TGI (HCC-2998 colon): 10.1 µM | TGI (OVCAR-4 ovarian): 13.4 µM | TGI (DLD-1 colon): 49.8 µM | TGI (NCI-H23 lung): 5.77 µM | TGI (UACC-62 melanoma): 16.4 µM | TGI (U251 CNS): 2.11 µM | TGI (NCI-H226 lung): 3.24 µM | TGI (HS 578T breast): 0.917 µM | TGI (HL-60(TB) leukemia): 29.8 µM | TGI (EKVX NSCLC): 10.3 µM

Cc1cc2c(cc1C)[n+](=O)c(C(=O)CC(=O)C(=O)Nc1ccccc1C)c(C)n2[O-]
TGI (SNB-78 CNS): > 100 µM | TGI (UO-31 renal): > 100 µM | TGI (SK-OV-3 ovarian): > 100 µM | TGI (SR leukemia): > 100 µM | TGI (ACHN renal): > 100 µM | TGI (COLO 205 colon): > 100 µM | TGI (OVCAR-3 ovarian): > 100 µM | TGI (OVCAR-8 ovarian): > 100 µM | TGI (KM12 colon): > 100 µM | TGI (DMS 273 small cell lung): > 100 µM | TGI (RPMI-8226 leukemia): > 100 µM | TGI (MALME-3M melanoma): > 100 µM | TGI (SF-295 CNS): > 100 µM | TGI (LOX IMVI melanoma): > 100 µM | TGI (CAKI-1 renal): > 100 µM | TGI (IGROV1 ovarian): > 100 µM | TGI (SK-MEL-5 melanoma): > 100 µM | TGI (SN12C renal): > 100 µM | TGI (A498 renal): > 100 µM | TGI (MOLT-4 leukemia): > 100 µM | TGI (SF-268 CNS): > 100 µM | TGI (TK-10 renal): > 100 µM | TGI (SW-620 colon): > 100 µM | TGI (RXF-631 renal): > 100 µM | TGI (HOP-92 NSCLC): > 100 µM | TGI (K-562 leukemia): > 100 µM | TGI (OVCAR-5 ovarian): > 100 µM | TGI (HT29 colon): > 100 µM | TGI (SNB-19 CNS): > 100 µM | TGI (SK-MEL-2 melanoma): > 100 µM | TGI (NCI-H522 lung): > 100 µM | TGI (NCI-H460 lung): > 100 µM | TGI (HOP-18 NSCLC): > 100 µM | TGI (786-0 renal): > 100 µM | TGI (HOP-62 NSCLC): > 100 µM | TGI (HCT-15 colon): > 100 µM | TGI (KM20L2 colon): > 100 µM | TGI (SNB-75 CNS): > 100 µM | TGI (CCRF-CEM leukemia): > 100 µM | TGI (SF-539 CNS): > 100 µM | TGI (M14 melanoma): > 100 µM | TGI (RXF 393 renal): > 100 µM | TGI (SK-MEL-28 melanoma): > 100 µM | TGI (A549 NSCLC): > 100 µM | TGI (LXFL 529 NSCLC): > 100 µM | TGI (UACC-257 melanoma): > 100 µM | TGI (HCT-116 colon): > 100 µM | TGI (HCC-2998 colon): > 100 µM | TGI (OVCAR-4 ovarian): > 100 µM | TGI (NCI-H23 lung): > 100 µM | TGI (UACC-62 melanoma): > 100 µM | TGI (U251 CNS): > 100 µM | TGI (NCI-H226 lung): > 100 µM | TGI (HL-60(TB) leukemia): > 100 µM | TGI (EKVX NSCLC): > 100 µM | TGI (M19-MEL melanoma): > 100 µM

S=c1sc2sc(=S)sc2s1
TGI (SNB-78 CNS): > 100 µM | TGI (UO-31 renal): 81.8 µM | TGI (SK-OV-3 ovarian): 33.9 µM | TGI (SR leukemia): > 100 µM | TGI (ACHN renal): > 100 µM | TGI (COLO 205 colon): > 100 µM | TGI (OVCAR-8 ovarian): > 100 µM | TGI (KM12 colon): > 100 µM | TGI (DMS 273 small cell lung): > 100 µM | TGI (RPMI-8226 leukemia): > 100 µM | TGI (MALME-3M melanoma): > 100 µM | TGI (SF-295 CNS): 72 µM | TGI (LOX IMVI melanoma): > 100 µM | TGI (CAKI-1 renal): > 100 µM | TGI (IGROV1 ovarian): > 100 µM | TGI (SK-MEL-5 melanoma): > 100 µM | TGI (SN12C renal): > 100 µM | TGI (A498 renal): 48.2 µM | TGI (MOLT-4 leukemia): > 100 µM | TGI (SF-268 CNS): > 100 µM | TGI (TK-10 renal): > 100 µM | TGI (SW-620 colon): > 100 µM | TGI (RXF-631 renal): 39.1 µM | TGI (HOP-92 NSCLC): > 100 µM | TGI (K-562 leukemia): > 100 µM | TGI (OVCAR-5 ovarian): 40.2 µM | TGI (HT29 colon): 78.9 µM | TGI (SNB-19 CNS): > 100 µM | TGI (SK-MEL-2 melanoma): > 100 µM | TGI (NCI-H522 lung): > 100 µM | TGI (NCI-H460 lung): 47.7 µM | TGI (HOP-18 NSCLC): > 100 µM | TGI (786-0 renal): > 100 µM | TGI (HOP-62 NSCLC): > 100 µM | TGI (HCT-15 colon): > 100 µM | TGI (KM20L2 colon): > 100 µM | TGI (SNB-75 CNS): 82.6 µM | TGI (CCRF-CEM leukemia): > 100 µM | TGI (SF-539 CNS): 57.8 µM | TGI (M14 melanoma): 59 µM | TGI (RXF 393 renal): > 100 µM | TGI (A549 NSCLC): > 100 µM | TGI (LXFL 529 NSCLC): 26.9 µM | TGI (UACC-257 melanoma): > 100 µM | TGI (HCT-116 colon): > 100 µM | TGI (HCC-2998 colon): > 100 µM | TGI (OVCAR-4 ovarian): > 100 µM | TGI (DLD-1 colon): > 100 µM | TGI (UACC-62 melanoma): > 100 µM | TGI (U251 CNS): 49 µM | TGI (HL-60(TB) leukemia): 23.3 µM | TGI (M19-MEL melanoma): 75.6 µM
